Among the data in patent US20260001876A1, “Compounds and Their Use as PDE4 Activators” (Mironid Limited, priority 2022, published 2026) are activity values, retold here.

This assay has as its system m-IMCD3 cells. Briefly: Inhibition of PGE2-stimulated in vitro cyst formation in m-IMCD3 cells (3D culture). Format: cell-based. Conditions: Mus musculus, mIMCD3, 144 h; 3 μM; mean cyst area; 100% for (DMSO + PGE2) and 0% for DMSO control; 6 days of culture; read-out: % Cyst area* after incubation with 3 μM test compound. How it is done: HEK 293 and MDCK cells (Public Health England, Cell Culture Collections) were maintained in Dulbecco's Modified Eagle's Medium (DMEM) supplemented with 10% (v/v) fetal bovine serum (FBS) (Seralab), 2 mM L-glutamine and 100 U/mL penicillin streptomycin cocktail (ThermoFisher); termed complete media. Clonal HEK 293 cell lines were maintained in complete media supplemented with 0.6 mg/ml G418 (Enzo Life Sciences). Mouse inner medullary collecting duct (m-IMCD3) cells [American Type Culture Collection (ATCC)] were maintained in media consisting of DMEM/Hams F-12 50/50 Mix (DMEM F12; Corning) supplemented with penicillin streptomycin cocktail (100 U/mL) and FBS (10% v/v) (DMEM F12-10% FBS).
Experiment 3: Inhibition of In Vitro Cyst Formation in m-IMCD3 Cells Treated with PDE4 Long Form Activators
The mouse Inner Medullary Collecting Duct cell line (m-IMCD3) spontaneously forms cystic spheroids in 3D culture with a Type 1 collagen/Matrigel extracellular matrix. This process can be stimulated with agents which raise intracellular cAMP and is used as an in vitro model for the formation of cystic structures in the kidneys of patients with ADPKD.
Rat Collagen I (Fisher Scientific) is prepared on ice by neutralising with 1M NaOH and diluting with a 2× volume of DMEM/F12+10% FBS. This is mixed 1:1.1 with ice cold Matrigel (Corning) for coating plates (coating mix), and 1:0.93 with Matrigel for cell plating (plating mix).
The assay is conducted in the wells of a 96-well plate culture dish using a total volume of 130 μL of collagen/Matrigel/DMEM F12-10% FBS suspension in growth media for each matrix plug per individual well. Initially, 30 μL of collagen/Matrigel/DMEM F12-10% FBS (coating mix) is added into the well of a 96 well plate and the collagen is set to a gel by incubating at 37° C. for at least 15 minutes. A second layer of 100 μL collagen/Matrigel suspension (plating mix) containing m-IMCD3 cells (2.75×10^6 m-IMCD3 cells per 96-well plate) is layered over the coating mix and the collagen/Matrigel/cell mix again set to a gel by incubating at 37° C. Cell cultures are maintained at 37° C. in an atmosphere of 5% CO2, 95% air.
Between 18 and 24 h after plating, test compound(s) as DMSO stock solutions [0.1% (v/v) final DMSO concentration] and PGE2 (100 nM final concentration) in DMEM F12-10% FBS are added in quadruplicate wells per condition. Media, together with the test compound and PGE2 are replenished after 2 or 3 days. After 6 days of culture z stack images of the wells are captured using the Nikon Eclipse Ti2-E microscope. Nikon General Analysis software is used to measure the following parameters in each well: the mean cyst area, the number of cysts, and the total cyst area.
PDE4 long form activators inhibited in vitro cyst formation in m-IMCD3 cells. Data are shown in Table 4 as mean cyst area (%), compared to 100% for (DMSO+PGE2) and 0% for DMSO control.
For the compound `O=C(Cc1ccccc1)N1CCc2nc(N3C4CCC3CNC4)ncc2C1` [Example 133, 1-(2-(3,8-diazabicyclo[3.2.1]octan-8-yl)-7,8-dihydropyrido[4,3-d]pyrimidin-6(5H)-yl)-2-phenylethan-1-one], the activity at 3 µM is -5%. As to `O=C(Cc1ccccc1)N1CCc2nc(N3CC4CCC(C3)N4)ncc2C1` [Example 135, 1-(2-(3,8-diazabicyclo[3.2.1]octan-3-yl)-7,8-dihydropyrido[4,3-d]pyrimidin-6(5H)-yl)-2-phenylethan-1-one], the activity at 3 µM is -5%. Take `N#Cc1ccc(CC(=O)N2CCc3nc(N4CCNCC4)ncc3C2)cc1` [Example 137, 4-(2-oxo-2-(2-(piperazin-1-yl)-7,8-dihydropyrido[4,3-d]pyrimidin-6(5H)-yl)ethyl)benzonitrile]: the activity at 3 µM was found to be 13%.

Regarding `N#Cc1ccc(CC(=O)N2CCc3nc(N4CC5CCC(C4)N5)ncc3C2)cc1` [Example 138, 4-(2-(2-(3,8-diazabicyclo[3.2.1]octan-3-yl)-7,8-dihydropyrido[4,3-d]pyrimidin-6(5H)-yl)-2-oxoethyl)benzonitrile], the activity at 3 µM is 0%. The value for `O=C(Cc1ccc(F)cc1)N1CCc2nc(N3CCNCC3)ncc2C1` [Example 140, 2-(4-fluorophenyl)-1-(2-(piperazin-1-yl)-7,8-dihydropyrido[4,3-d]pyrimidin-6(5H)-yl)ethan-1-one] was 6%; that for `O=C(Cc1ccc(F)cc1)N1CCc2nc(N3CC4CCC(C3)N4)ncc2C1` [Example 141, 1-(2-(3,8-diazabicyclo[3.2.1]octan-3-yl)-7,8-dihydropyrido[4,3-d]pyrimidin-6(5H)-yl)-2-(4-fluorophenyl)ethan-1-one] was -2%; that for `O=C(CC1CCCC1)N1CCc2nc(N3C4CCC3CNC4)ncc2C1` [Example 142, 1-(2-(3,8-diazabicyclo[3.2.1]octan-8-yl)-7,8-dihydropyrido[4,3-d]pyrimidin-6(5H)-yl)-2-cyclopentylethan-1-one] was 26%. With `O=C(CC1CCCC1)N1CCc2nc(N3CCNCC3)ncc2C1` [Example 143, 2-cyclopentyl-1-(2-(piperazin-1-yl)-7,8-dihydropyrido[4,3-d]pyrimidin-6(5H)-yl)ethan-1-one], the activity at 3 µM turned out to be 22%. `O=C(CC1CCCCC1)N1CCc2nc(N3CCNCC3)ncc2C1` [Example 145, 2-cyclohexyl-1-(2-(piperazin-1-yl)-7,8-dihydropyrido[4,3-d]pyrimidin-6(5H)-yl)ethan-1-one]: the activity at 3 µM turned out to be 15%. The value for `CC(C)(C)CC(=O)N1CCc2nc(N3C4CCC3CNC4)ncc2C1` [Example 146, 1-(2-(3,8-diazabicyclo[3.2.1]octan-8-yl)-7,8-dihydropyrido[4,3-d]pyrimidin-6(5H)-yl)-3,3-dimethylbutan-1-one] was 22%; that for `O=C(CC1CCCC1)N1CCc2cnc(N3C4CCC3CNC4)nc2C1` [Example 148, 1-(2-(3,8-diazabicyclo[3.2.1]octan-8-yl)-5,8-dihydropyrido[3,4-d]pyrimidin-7 (6H)-yl)-2-cyclopentylethan-1-one] was 7%. Then `CC(C)(C)CC(=O)N1CCc2nc(N3CCNCC3)ccc2C1` [Example 149, 3,3-dimethyl-1-(2-(piperazin-1-yl)-7,8-dihydro-1,6-naphthyridin-6(5H)-yl) butan-1-one], with 11%; and `O=C(CC1CCCC1)N1CCc2nc(N3CC4CCC3CN4)ccc2C1` (stereo not shown) [Example 153, 1-(2-(2,5-diazabicyclo[2.2.2]octan-2-yl)-7,8-dihydro-1,6-naphthyridin-6(5H)-yl)-2-cyclopentylethan-1-one], with 2%. On to `O=C(CC1CCCC1)N1CCc2nc(N3CC4CCC(C3)N4)ccc2C1` [Example 154, 1-(2-(3,8-diazabicyclo[3.2.1]octan-3-yl)-7,8-dihydro-1,6-naphthyridin-6(5H)-yl)-2-cyclopentylethan-1-one], for which the activity at 3 µM is -6%. `O=C(CC1CCCC1)N1CCc2nc(N3C4CNCC3CC(O)C4)ccc2C1` (stereo not shown) [Example 157, 2-cyclopentyl-1-(2-(7-hydroxy-3,9-diazabicyclo[3.3.1]nonan-9-yl)-7,8-dihydro-1,6-naphthyridin-6(5H)-yl)ethan-1-one]: the activity at 3 µM was 10%. For the compound `CCN1CCN(c2ccc3c(n2)CCN(S(=O)(=O)Cc2ccc(F)cc2)C3)CC1` [Example 161, 2-(4-ethylpiperazin-1-yl)-6-((4-fluorobenzyl)sulfonyl)-5,6,7,8-tetrahydro-1,6-naphthyridine], the activity at 3 µM was 0%.

With `O=S(=O)(Cc1ccccc1)N1CCc2nc(N3CCNCC3)ccc2C1` [Example 164, 6-(benzylsulfonyl)-2-(piperazin-1-yl)-5,6,7,8-tetrahydro-1,6-naphthyridine], the activity at 3 µM stood at 0%. For the compound `CCN1CCN(c2ccc3c(n2)CCN(S(=O)(=O)Cc2ccccc2)C3)CC1` [Example 165, 6-(benzylsulfonyl)-2-(4-ethylpiperazin-1-yl)-5,6,7,8-tetrahydro-1,6-naphthyridine], the activity at 3 µM was -1%.

As to `CCN1CC2CCC(C1)N2c1ccc2c(n1)CCN(C(=O)N[C@H]1CCOc3ccccc31)C2` [Example 167, N—((S)-chroman-4-yl)-2-(3-ethyl-3,8-diazabicyclo[3.2.1]octan-8-yl)-7,8-dihydro-1,6-naphthyridine-6(5H)-carboxamide], the activity at 3 µM is -8%. Then `O=C(N[C@H]1CCOc2ccccc21)N1CCc2nc(N3CCNCC3)ccc2C1` [Example 168, (S)—N-(chroman-4-yl)-2-(piperazin-1-yl)-7,8-dihydro-1,6-naphthyridine-6(5H)-carboxamide], with 4%; and `CCN1CCN(c2ccc3c(n2)CCN(C(=O)N[C@H]2CCOc4ccccc42)C3)CC1` [Example 169, (S)—N-(chroman-4-yl)-2-(4-ethylpiperazin-1-yl)-7,8-dihydro-1,6-naphthyridine-6(5H)-carboxamide], with -4%; and `CCN1CC2CCC(C1)N2c1ccc2c(n1)CCN(C(=O)N[C@@H]1CCOc3ccccc31)C2` [Example 170, N—((R)-chroman-4-yl)-2-(3-ethyl-3,8-diazabicyclo[3.2.1]octan-8-yl)-7,8-dihydro-1,6-naphthyridine-6(5H)-carboxamide], with 23%. For `CCN1CC2CCC(C1)N2c1ccc2c(n1)CCN(C(=O)COc1ccc(F)cc1)C2` [Example 171, 1-(2-(3-ethyl-3,8-diazabicyclo[3.2.1]octan-8-yl)-7,8-dihydro-1,6-naphthyridin-6(5H)-yl)-2-(4-fluorophenoxy)ethan-1-one], the activity at 3 µM amounted to 4%. The value for `CCCN1CC2CCC(C1)N2c1ccc2c(n1)CCN(C(=O)COc1ccc(F)cc1)C2` [Example 172, 2-(4-fluorophenoxy)-1-(2-(3-propyl-3,8-diazabicyclo[3.2.1]octan-8-yl)-7,8-dihydro-1,6-naphthyridin-6(5H)-yl)ethan-1-one] was 6%.

For `COCCN1CC2CCC(C1)N2c1ccc2c(n1)CCN(C(=O)COc1ccc(F)cc1)C2` [Example 173, 2-(4-fluorophenoxy)-1-(2-(3-(2-methoxyethyl)-3,8-diazabicyclo[3.2.1]octan-8-yl)-7,8-dihydro-1,6-naphthyridin-6(5H)-yl)ethan-1-one], the activity at 3 µM was found to be 3%. Then `COCCCN1CC2CCC(C1)N2c1ccc2c(n1)CCN(C(=O)COc1ccc(F)cc1)C2` [Example 174, 2-(4-fluorophenoxy)-1-(2-(3-(3-methoxypropyl)-3,8-diazabicyclo[3.2.1]octan-8-yl)-7,8-dihydro-1,6-naphthyridin-6(5H)-yl)ethan-1-one], with 1%; and `O=C(Cc1ccccc1)N1CCc2nc(N3CCNCC3)ccc2C1` [Example 175, 2-phenyl-1-(2-(piperazin-1-yl)-7,8-dihydro-1,6-naphthyridin-6(5H)-yl)ethan-1-one], with 2%. Regarding `O=C(Cc1ccc(F)cc1)N1CCc2nc(N3CCNCC3)ccc2C1` [Example 176, 2-(4-fluorophenyl)-1-(2-(piperazin-1-yl)-7,8-dihydro-1,6-naphthyridin-6(5H)-yl)ethan-1-one], the activity at 3 µM is -2%.
